# Measured values reported in paper PMC12406256, “Food Additives Inhibit Intestinal Drug Transporters but Have Limited Effect on In Vitro Drug Permeability” (Molecular Pharmaceutics, 2025).
# “And” between values parts separate entries of the source, which are not always exact repeats. Equal entries are not always repeated. “Also recorded” adds a separate entry of the source. Where two headings read alike, the source gives them in different places.
# Key:
# P-gp [1] = molecular target: T1, P-gp (Homo sapiens, UniProt P08183); test: Vesicular transport assay, P-gp (N-methyl-quinidine substrate); details: food additive 50 μM; N-methyl-quinidine 2 μM; n = 1
# T1 sequence (P08183 whole entry): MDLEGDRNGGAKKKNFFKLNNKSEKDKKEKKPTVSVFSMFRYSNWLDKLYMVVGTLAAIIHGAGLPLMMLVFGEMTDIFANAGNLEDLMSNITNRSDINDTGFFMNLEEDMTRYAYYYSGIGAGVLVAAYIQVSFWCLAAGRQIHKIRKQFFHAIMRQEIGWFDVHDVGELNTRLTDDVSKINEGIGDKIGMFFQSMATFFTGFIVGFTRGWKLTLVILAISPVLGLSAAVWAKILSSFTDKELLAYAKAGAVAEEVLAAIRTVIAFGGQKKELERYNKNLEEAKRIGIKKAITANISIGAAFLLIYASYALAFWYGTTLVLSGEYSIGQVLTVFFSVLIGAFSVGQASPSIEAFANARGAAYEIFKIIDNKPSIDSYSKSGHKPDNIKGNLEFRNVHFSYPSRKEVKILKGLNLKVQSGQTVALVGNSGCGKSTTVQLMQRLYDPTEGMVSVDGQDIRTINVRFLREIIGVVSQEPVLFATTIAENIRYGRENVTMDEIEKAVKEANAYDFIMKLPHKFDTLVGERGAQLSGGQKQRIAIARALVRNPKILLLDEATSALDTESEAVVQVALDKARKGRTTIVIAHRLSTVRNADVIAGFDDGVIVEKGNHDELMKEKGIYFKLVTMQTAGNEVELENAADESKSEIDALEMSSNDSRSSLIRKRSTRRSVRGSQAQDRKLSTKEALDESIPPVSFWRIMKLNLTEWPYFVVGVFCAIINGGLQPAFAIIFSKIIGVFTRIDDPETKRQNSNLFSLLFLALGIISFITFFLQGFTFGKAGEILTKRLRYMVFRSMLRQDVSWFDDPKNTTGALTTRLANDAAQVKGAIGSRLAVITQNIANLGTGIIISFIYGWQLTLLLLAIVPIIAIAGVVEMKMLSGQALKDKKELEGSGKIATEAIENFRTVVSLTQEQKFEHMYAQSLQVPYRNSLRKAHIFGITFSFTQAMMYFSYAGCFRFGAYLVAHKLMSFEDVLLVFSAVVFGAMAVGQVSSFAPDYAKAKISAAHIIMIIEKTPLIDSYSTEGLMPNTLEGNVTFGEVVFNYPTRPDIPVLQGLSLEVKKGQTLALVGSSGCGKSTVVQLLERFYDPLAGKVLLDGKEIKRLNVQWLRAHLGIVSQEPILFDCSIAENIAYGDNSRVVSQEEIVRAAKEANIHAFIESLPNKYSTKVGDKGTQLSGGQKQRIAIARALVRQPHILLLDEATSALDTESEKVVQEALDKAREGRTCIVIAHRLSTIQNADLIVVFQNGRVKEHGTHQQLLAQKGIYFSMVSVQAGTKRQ
# Protocol: (§1) Transport inhibition by 22 food additives was tested with Spodoptera frugiperda (Sf9) derived crude membrane vesicles expressing BCRP, MRP2, or P-gp produced in-house. […] Vesicles (50 μg total protein/well) were diluted in an assay buffer (40 mM MOPS–Tris pH 7.0, 60 mM KCl, and 6 mM MgCl2) with the substrate, and food additives (final concentration of 50 μM) in DMSO were added to the mixture. After preincubation, either the assay buffer or Mg-ATP solution (final concentration 4 mM) was added to the plate to start the reaction. The plate was incubated at 37 °C, and the reaction was stopped with an ice-cold washing mixture (40 mM MOPS-Tris pH 7.0 and 70 mM KCl). Samples were moved to a MultiScreenHTS-FB Plate Glass fiber 1.0 μm/0.65 μm Durapore filter plate (Millipore, USA), and the wells were washed five times with the ice-cold washing mixture. For BCRP and MRP2, the fluorescent substrate was eluted from the filters with 100 μL 0.1 M NaOH. For LY samples, an equal volume of 0.1 M HCl was added to neutralize the samples before fluorescence measurement. The amount of the substrate accumulated into the vesicles was measured by fluorescent detection using a Varioskan LUX microplate reader (Thermo Fisher Scientific, Finland) (Table ). The accumulation into the P-gp vesicles was measured with high-performance liquid chromatography (HPLC) (Agilent 110 series, Agilent Technologies, USA) after lysis and elution of the vesicle contents with 100 μL 3:1 methanol/water + 0.1% formic acid. The column used was a Poroshell 120 EC-C18 with a size of 4.6 × 100 mm and 2.7 μm particle size. Eluent A was 0.1% formic acid, and eluent B was acetonitrile. The flow rate of eluent was 1 mL/min, and the injection volume of samples was 10 μL. […] The retention time for NMQ was around 2.5 min.
# (§2) For the efflux transporters, the relative transport was calculated as relativetransport(%ofcontrol)=transportinh,ATP−transportinh,noATP/transportDMSO,ATP−transportDMSO,noATP×100% where transportinh,ATP and transportinh,no ATP are the transport rates in the presence of food additives with or without ATP, respectively, and transportDMSO,ATP and transportDMSO,no ATP are the corresponding transport rates in the presence of the vehicle (DMSO) with or without ATP.
# (§3) The half-maximal inhibitory concentrations (IC50) were calculated with GraphPad Prism version 9.0.2 (GraphPad Software, San Diego, CA) using nonlinear regression that fits the data to a four-parameter dose–response curve: relativetransport=minimum+maximum−minimum/1+([I]/IC50)^h where minimum and maximum describe the plateaus of minimal and maximal relative transport (%), [I] is the concentration of inhibitor, and h is the Hill slope, which describes the steepness of the slope.
# OATP2B1 [2] = molecular target: T2, OATP2B1 (Homo sapiens, UniProt O94956); test: HEK293 uptake assay, OATP2B1 (5-carboxyfluorescein substrate); format: cell-based; details: food additive 50 μM; 5-carboxyfluorescein 2 μM; HEK293 cells; n = 1
# T2 construct: expressed in transfected cells; host or cells: HEK293 cells (ATCC) transduced with recombinant OATP2B1 baculovirus
# T2 sequence (O94956 1-709): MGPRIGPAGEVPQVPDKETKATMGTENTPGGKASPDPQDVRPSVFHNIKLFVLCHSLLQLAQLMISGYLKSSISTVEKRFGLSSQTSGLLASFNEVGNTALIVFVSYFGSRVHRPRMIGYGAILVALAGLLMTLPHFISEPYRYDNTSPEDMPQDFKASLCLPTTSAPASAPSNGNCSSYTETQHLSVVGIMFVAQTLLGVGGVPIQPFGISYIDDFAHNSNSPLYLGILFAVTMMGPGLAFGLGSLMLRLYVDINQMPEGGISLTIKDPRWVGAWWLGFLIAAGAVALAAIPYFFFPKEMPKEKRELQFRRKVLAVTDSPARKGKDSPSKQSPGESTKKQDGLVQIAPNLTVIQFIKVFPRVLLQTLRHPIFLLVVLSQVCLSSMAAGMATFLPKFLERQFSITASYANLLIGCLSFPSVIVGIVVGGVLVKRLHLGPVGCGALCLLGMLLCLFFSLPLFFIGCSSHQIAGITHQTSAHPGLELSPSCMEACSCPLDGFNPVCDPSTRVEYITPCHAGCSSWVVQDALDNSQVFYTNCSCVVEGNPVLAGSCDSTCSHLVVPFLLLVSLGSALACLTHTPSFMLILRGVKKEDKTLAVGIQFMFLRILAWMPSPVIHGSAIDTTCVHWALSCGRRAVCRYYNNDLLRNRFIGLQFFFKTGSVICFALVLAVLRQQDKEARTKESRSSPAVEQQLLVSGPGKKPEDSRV
# Protocol: The inhibition of OATP2B1 was studied using a HEK293 cell-based uptake assay. HEK293 cells were cultured in DMEM supplemented with 10% FBS at 37 °C and 5% CO2 and seeded at 22,500 cells/well on 96-well plates coated with 0.1 mg/mL poly-D-lysine. After 24 h, the medium was replaced with a transduction mix (DMEM with 10% FBS, 5 mM sodium butyrate, and recombinant OATP2B1 or enhanced yellow fluorescent protein [eYFP, negative control] baculoviruses). The baculoviruses were produced as previously described. The uptake assay was performed after approximately 48 h. […] Test solutions also contained the substrate. Cells were washed with warm transport buffer and preincubated at 37 °C. Preincubation solutions were replaced with test solutions and incubated at 37 °C with shaking at 250 rpm. Transport was terminated by aspirating the test solution and washing the wells with an ice-cold transport buffer (150 μL) three times. Wells were left to dry, and cells were lysed with 0.1 M NaOH. […] Total protein concentration was measured from six random wells with a Pierce Coomassie (Bradford) Assay kit (Thermo Fisher Scientific) to ensure a similar protein concentration in the OATP2B1 and eYFP wells.
# BCRP [3] = molecular target: T3, BCRP (Homo sapiens, UniProt Q9UNQ0); test: Vesicular transport assay, BCRP (Lucifer yellow substrate); format: biochemical; parameters: made in house; host or cells: Spodoptera frugiperda Sf9 cells, crude membrane vesicles; details: for inhibition of BCRP substrate accumulation: n = 1
# T3 sequence (Q9UNQ0 1-655): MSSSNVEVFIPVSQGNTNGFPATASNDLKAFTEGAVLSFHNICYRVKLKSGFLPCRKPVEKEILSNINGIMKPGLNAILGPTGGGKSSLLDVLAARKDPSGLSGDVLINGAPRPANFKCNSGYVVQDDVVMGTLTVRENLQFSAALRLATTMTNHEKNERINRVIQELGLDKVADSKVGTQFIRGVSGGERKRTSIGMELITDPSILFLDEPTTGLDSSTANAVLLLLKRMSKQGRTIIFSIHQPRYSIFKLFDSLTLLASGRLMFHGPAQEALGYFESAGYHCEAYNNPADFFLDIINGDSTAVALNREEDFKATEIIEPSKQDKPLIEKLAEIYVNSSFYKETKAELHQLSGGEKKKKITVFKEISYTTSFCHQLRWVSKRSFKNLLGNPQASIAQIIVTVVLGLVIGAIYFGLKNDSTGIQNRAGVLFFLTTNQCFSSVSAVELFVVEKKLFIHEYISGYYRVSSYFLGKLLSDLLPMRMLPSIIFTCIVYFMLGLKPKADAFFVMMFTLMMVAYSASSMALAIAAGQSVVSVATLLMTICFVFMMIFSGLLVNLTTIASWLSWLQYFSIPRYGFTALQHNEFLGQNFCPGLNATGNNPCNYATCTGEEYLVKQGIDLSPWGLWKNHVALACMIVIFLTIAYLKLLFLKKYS
# Protocol: as §1, §2, §3
# MRP2 = molecular target: T4, MRP2 (Homo sapiens, UniProt Q92887); test: Vesicular transport assay, MRP2 (CDCF substrate); format: biochemical
# T4 construct: made in house; host or cells: Spodoptera frugiperda Sf9 cells, crude membrane vesicles
# T4 sequence (Q92887 whole entry): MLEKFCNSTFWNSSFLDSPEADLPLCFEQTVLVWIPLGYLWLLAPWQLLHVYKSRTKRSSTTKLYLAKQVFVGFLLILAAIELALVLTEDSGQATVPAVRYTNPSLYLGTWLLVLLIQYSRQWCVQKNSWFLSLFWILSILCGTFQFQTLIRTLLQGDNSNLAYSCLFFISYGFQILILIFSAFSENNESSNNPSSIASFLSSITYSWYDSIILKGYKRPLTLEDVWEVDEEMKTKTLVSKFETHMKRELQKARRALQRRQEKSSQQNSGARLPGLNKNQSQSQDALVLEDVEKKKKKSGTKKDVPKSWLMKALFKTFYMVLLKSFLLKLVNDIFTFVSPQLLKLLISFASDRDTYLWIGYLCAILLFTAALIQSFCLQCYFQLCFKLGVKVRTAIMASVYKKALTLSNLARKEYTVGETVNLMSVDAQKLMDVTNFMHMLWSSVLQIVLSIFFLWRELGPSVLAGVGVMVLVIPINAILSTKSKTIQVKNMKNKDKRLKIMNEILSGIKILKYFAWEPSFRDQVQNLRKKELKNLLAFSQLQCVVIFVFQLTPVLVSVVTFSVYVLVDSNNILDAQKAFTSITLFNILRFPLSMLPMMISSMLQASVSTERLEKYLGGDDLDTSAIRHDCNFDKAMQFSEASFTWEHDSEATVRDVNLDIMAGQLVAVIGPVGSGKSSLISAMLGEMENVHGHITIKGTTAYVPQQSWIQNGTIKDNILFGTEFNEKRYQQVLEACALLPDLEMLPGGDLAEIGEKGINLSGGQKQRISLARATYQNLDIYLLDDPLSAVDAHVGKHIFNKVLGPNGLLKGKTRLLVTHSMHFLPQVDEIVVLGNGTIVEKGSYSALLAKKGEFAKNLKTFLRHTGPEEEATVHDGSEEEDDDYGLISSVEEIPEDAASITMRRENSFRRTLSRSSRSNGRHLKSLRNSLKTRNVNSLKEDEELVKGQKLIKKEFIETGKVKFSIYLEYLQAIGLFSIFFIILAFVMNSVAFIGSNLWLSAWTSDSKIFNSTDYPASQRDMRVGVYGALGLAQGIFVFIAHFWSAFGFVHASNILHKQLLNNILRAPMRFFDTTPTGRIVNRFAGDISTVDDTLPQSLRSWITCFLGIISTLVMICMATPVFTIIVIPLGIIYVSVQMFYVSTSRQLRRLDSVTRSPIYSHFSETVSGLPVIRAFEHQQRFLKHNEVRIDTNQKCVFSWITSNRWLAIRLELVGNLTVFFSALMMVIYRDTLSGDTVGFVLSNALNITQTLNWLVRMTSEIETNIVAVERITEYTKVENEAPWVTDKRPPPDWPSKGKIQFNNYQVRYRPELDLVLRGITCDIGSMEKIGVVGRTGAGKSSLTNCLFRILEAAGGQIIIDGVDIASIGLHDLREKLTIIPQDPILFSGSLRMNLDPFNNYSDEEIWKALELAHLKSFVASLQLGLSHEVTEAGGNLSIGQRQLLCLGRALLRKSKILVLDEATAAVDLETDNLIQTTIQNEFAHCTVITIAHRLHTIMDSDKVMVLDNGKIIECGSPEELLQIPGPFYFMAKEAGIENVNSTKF
# Protocol: Transport inhibition by 22 food additives was tested with Spodoptera frugiperda (Sf9) derived crude membrane vesicles expressing BCRP, MRP2, or P-gp produced in-house. […] Vesicles (50 μg total protein/well) were diluted in an assay buffer (40 mM MOPS–Tris pH 7.0, 60 mM KCl, and 6 mM MgCl2) with the substrate, and food additives (final concentration of 50 μM) in DMSO were added to the mixture. After preincubation, either the assay buffer or Mg-ATP solution (final concentration 4 mM) was added to the plate to start the reaction. The plate was incubated at 37 °C, and the reaction was stopped with an ice-cold washing mixture (40 mM MOPS-Tris pH 7.0 and 70 mM KCl). Samples were moved to a MultiScreenHTS-FB Plate Glass fiber 1.0 μm/0.65 μm Durapore filter plate (Millipore, USA), and the wells were washed five times with the ice-cold washing mixture. For BCRP and MRP2, the fluorescent substrate was eluted from the filters with 100 μL 0.1 M NaOH. […] The amount of the substrate accumulated into the vesicles was measured by fluorescent detection using a Varioskan LUX microplate reader (Thermo Fisher Scientific, Finland) (Table ).
# as §2, §3
# OATP2B1 [4] = molecular target: T2, OATP2B1; details: cited from earlier work
# BCRP [5] = molecular target: T3, BCRP; details: cited from earlier work
# P-gp [6] = molecular target: T1, P-gp; parameters: made in house; host or cells: Spodoptera frugiperda Sf9 cells, crude membrane vesicles; details: ref Kulkarni et al.; cited from earlier work
# Caco-2 cells = test: in vitro
# Protocol: Caco-2 cells were cultured on 12-well Transwell polycarbonate membrane inserts with a 0.4 μm pore size (Corning Incorporated, Kennebunk, ME) at 37 °C and 5% CO2 for 21–24 days prior to the experiment as described in Hubatsch et al. The culture medium (DMEM, 10% FBS, 1% MEM nonessential amino acids, 100 U/mL penicillin–streptomycin) was changed every second day. Transepithelial electrical resistance (TEER) was measured before and after the permeability assay with a Millicell-ERS electrode (Millipore, Bedford, MA) attached to an epithelial volt ohm meter (EVOM, World Precision Instruments, Sarasota, FL). The permeability assay was performed according to a previously published protocol. […] Sulfasalazine is a substrate of BCRP and OATP2B1. , The DMSO concentration was 0.45–1.5%. Before the experiment, inserts were washed and preincubated in the transport buffer for 20 min shaking at 37 °C. Sulfasalazine and LY permeability was measured in the apical to basolateral direction at five time points (20, 40, 60, 90, and 120 min) and, additionally, in the basolateral to apical direction to calculate the efflux ratio. […] […] LY (250 μM) was added on the donor side of all inserts to measure the integrity of the cell monolayer. Before analysis, samples were centrifuged at 2755g for 30 min, and donor solution and mass balance samples were diluted 1:100. LY fluorescence was measured with a Varioskan LUX microplate reader (Thermo Fisher Scientific) at 430 nm excitation and 538 nm emission. Sulfasalazine was analyzed with ultra-performance liquid chromatography (UPLC) using a Syncronis C18 column (1.7 μm particle size, 50 × 2.1 mm + 0.2 μm Waters online filter) (Thermo Fisher Scientific) coupled with Waters Acquity UPLC interfaced with a PDA detector both controlled by the Waters Empower software version 3. The UPLC was operated in gradient mode at 354 nm. Solvents were 0.015 M phosphate buffer pH 2 (A), acetonitrile (B), 1:1 acetonitrile/methanol (strong needle wash), and 20% acetonitrile (weak needle wash). Column temperature was 30 °C, injection volume was 10 μL, retention time was 1.46 min, and flow rate was 0.5 mL/min. The gradient was 25% B → 70% B (0–3 min), 70% B → 25% B (3.00–3.01 min), and 25% B (3.01–4 min). The data were collected for the first 180 s of each UPLC run.
# In the Caco-2 permeability assay, the apparent permeability (P app) of sulfasalazine was calculated using the following equation: Papp=(dQ/dt)(1/A×C0) where dQ/dt is the rate of permeation across the cells (nmol/min), A is the surface area of the filter (1.12 cm^2), and C 0 is the initial concentration in the donor chamber (μM). The efflux ratio of sulfasalazine was calculated by dividing the P app in the basolateral to the apical direction by the P app in the apical to basolateral direction. The TEER for each cell insert was calculated before and after the experiment by multiplying the mean resistance of three measurements by the surface area of the filter (1.12 cm^2). Mass balance was calculated by dividing the […]. All experiments were done in triplicate wells, and the IC50 and Caco-2 permeability assays were repeated three times.
# [7] = food additive 50 μM, Lucifer yellow 50 μM
compound,measurement,setting,value
OC[C@@H](O)[C@H](O)[C@@H](O)CO [xylitol],inhibition of P-gp substrate accumulation,P-gp [1],None
CC1=C(/C=C/C(C)=C/C=C/C(C)=C/C=C/C=C(C)/C=C/C=C(\C)C=O)C(C)(C)CCC1 [beta-apo-8’-carotenal],inhibition of OATP2B1-mediated uptake,OATP2B1 [2],did not inhibit these transporters as markedly as beta-carotene
same,inhibition of P-gp substrate accumulation,P-gp [1],did not inhibit these transporters as markedly as beta-carotene
same,inhibition of BCRP substrate accumulation,BCRP [3]; [7],did not inhibit these transporters as markedly as beta-carotene
OC[C@@H](O)[C@@H](O[C@@H]1O[C@H](CO)[C@H](O)[C@H](O)[C@H]1O)[C@H](O)[C@@H](O)CO [lactitol],inhibition of P-gp substrate accumulation,P-gp [1],None
Cc1cc(C(C)(C)C)c(O)c(C(C)(C)C)c1 [butylated hydroxytoluene],IC50,"MRP2; CDCF 5 μM, membrane vesicles, n = 3, read-out: IC50 (95% CI), MRP2",49 µM
same,inhibition at 50 μM,"MRP2; Sf9-derived crude membrane vesicles expressing MRP2, pH 7, probe CDCF 5 μM, food additive 50 μM, n = 1, read-out: inhibition of MRP2 substrate accumulation",≥ 50%
same,inhibition of OATP2B1-mediated uptake,OATP2B1 [2],OATP2B1-stimulating effect
same,OATP2B1 inhibition,OATP2B1 [4]; ref Kulkarni et al.,did not inhibit; also recorded: OATP2B1-stimulating effect
same,BCRP inhibition,BCRP [5]; ref Kulkarni et al.,did not inhibit
same,inhibition of P-gp substrate accumulation,P-gp [1],None
same,P-gp inhibition,P-gp [6],did not inhibit
"COc1ccc2c3c([nH]c2c1)[C@H](CC(C)C)N1C(=O)[C@H](CCC(=O)OC(C)(C)C)NC(=O)[C@@H]1C3 [Ko-143, reference compound]",apical to basolateral P app of sulfasalazine with control inhibitor,"Caco-2 cells; Ko-143 10 μM on apical and basolateral sides, sulfasalazine 500 μM",~0.6 × 10^–6 cm/s
OC[C@@H](O)[C@@H](O[C@H]1O[C@H](CO)[C@@H](O)[C@H](O)[C@H]1O)[C@H](O)[C@@H](O)CO [maltitol],inhibition of P-gp substrate accumulation,P-gp [1],None
OC[C@@H](O)[C@@H](O)[C@H](O)[C@H](O)CO [mannitol],inhibition of P-gp substrate accumulation,P-gp [1],None
OC[C@@H](O)[C@@H](O)[C@H](O)[C@@H](O)CO [sorbitol],inhibition of P-gp substrate accumulation,P-gp [1],None
OC[C@@H](O)[C@@H](O)CO [erythritol],inhibition of P-gp substrate accumulation,P-gp [1],None
O=S(=O)([O-])c1ccc(N=Nc2c(O)ccc3cc(S(=O)(=O)[O-])ccc23)cc1.[Na+].[Na+] [sunset yellow FCF],effect on sulfasalazine permeability (P app),Caco-2 cells; Caco-2,None of the selected food additives showed any effect
same,IC50,"OATP2B1 [4]; pH 5.5, previously characterized inhibitors, ref previous studies, read-out: IC50, OATP2B1, pH 5.5",20.3 µM
same,Ki,"OATP2B1 [4]; previously characterized inhibitors, ref previous studies, read-out: K i, OATP2B1",68.4 µM
same,IC50,"BCRP [5]; read-out: IC50 (95% CI), BCRP, previously characterized inhibitors, ref previous studies",10.6 µM and 14.1 µM
COc1ccc(O)c(C(C)(C)C)c1 [butylated hydroxyanisole],inhibition of OATP2B1-mediated uptake,OATP2B1 [2],≤ 50%
same,OATP2B1 inhibition,OATP2B1 [4]; ref Kulkarni et al.,significant inhibitor
same,IC50,"OATP2B1 [4]; ref Kulkarni et al., read-out: IC50, OATP2B1",> 50 µM
same,IC50,"BCRP [5]; read-out: IC50, BCRP, ref Kulkarni et al.",> 50 µM
same,BCRP inhibition,BCRP [5]; ref Kulkarni et al.,significant inhibitor
same,inhibition of P-gp substrate accumulation,P-gp [1],≤ 50%
same,inhibition of BCRP substrate accumulation,BCRP [3]; [7],≤ 50%
same,IC50,P-gp [6],> 50 µM
same,P-gp inhibition,P-gp [6],significant inhibitor
CCCOC(=O)c1cc(O)c(O)c(O)c1 [propyl gallate],inhibition of P-gp substrate accumulation,P-gp [1],None
O=C([O-])C1=NN(c2ccc(S(=O)(=O)[O-])cc2)C(=O)C1N=Nc1ccc(S(=O)(=O)[O-])cc1.[Na+].[Na+].[Na+] (centres unmarked) [tartrazine],sulfasalazine P app fold change,Caco-2 cells; food additive 200 μM on both sides of the cell monolayer,≤ 2
O=C1O[C@H]([C@@H](O)CO)C(O)=C1O [ascorbic acid],inhibition of P-gp substrate accumulation,P-gp [1],None
CCCCCCCCCCCCOC(=O)c1cc(O)c(O)c(O)c1 [dodecyl gallate],IC50,"BCRP [3]; Lucifer yellow 50 μM, membrane vesicles, n = 3, read-out: IC50 (95% CI), BCRP",22.5 µM
same,inhibition at 50 μM,"BCRP [3]; Sf9-derived crude membrane vesicles expressing BCRP, pH 7, probe Lucifer yellow 50 μM, food additive 50 μM, n = 1, read-out: inhibition of BCRP substrate accumulation",≥ 50%
